Earlier results as cited in patent US11944640B2, “Zinc-[gamma]-PGA compositions and methods for treating cancer” (XYLONIX PTE. LTD., priority 2016, dated 2024).

Assays:
[1] = system: folate receptor (FR), FR-α and FR-β; settings: FR-α vs FR-β
[2] = system: leukocyte-originating cells, including murine thymocytes, murine splenic lymphocytes, human Ramos B, and human Jurkat T cells; settings: nanomolar concentrations
[3] = system: androgen-dependent LNCaP and androgen-independent PC3, DU145 prostate cancer cell lines; settings: micromolar concentrations (1-10 μM)
rats = settings: 9˜14 days of dietary administration (240 ppm)

CN(CC1CNc2nc(N)[nH]c(=O)c2N1C)c1ccc(C(=O)N[C@@H](CCC(=O)O)C(=O)O)cc1 (stereo partly shown) [DMTHF, N^5,N^10-dimethyl tetrahydrofolate]
affinity for folate receptor isoforms (selectivity) [1]: higher affinity for FR-α over FR-β

zinc pyrithione
mode of cell death [2]: induced zinc-specific apoptosis | mode of cell death [3]: elicited ATP-depletion and, eventually, ERK and PKC-dependent necrosis | toxicity (rats): acute neurological toxicity
